Data from US20160135464A1, “PESTICIDAL COMPOSITIONS AND PROCESSES RELATED THERETO” (Dow AgroSciences LLC, priority 2014, published 2016).

Legend:
[1] = system: Beet Armyworm (BAW) (Spodoptera exigua); assay: Bioassay on beet armyworm (BAW), 128-well diet tray assay, percent mortality; type: in vivo; conditions: for pest or weed control at 50 µg/cm2, 50 µg/cm2: Spodoptera exigua, 50 μg/cm^2
Procedure: (§1) Certain molecules disclosed in this document were tested against BAW and CEW using procedures described in the following examples. In the reporting of the results, the “BAW & CEW Rating Table” was used (See Table Section).
Bioassays on BAW (Spodoptera exigua)
Bioassays on BAW were conducted using a 128-well diet tray assay. One to five second instar BAW larvae were placed in each well (3 mL) of the diet tray that had been previously filled with 1 mL of artificial diet to which 50 μg/cm^2 of the test compound (dissolved in 50 μL of 90:10 acetone-water mixture) had been applied (to each of eight wells) and then allowed to dry. Trays were covered with a clear self-adhesive cover and held at 25° C., 14:10 light-dark for five to seven days. Percent mortality was recorded for the larvae in each well; activity in the eight wells was then averaged. The results are indicated in the table entitled “Table 5: Biological Results” (See Table Section).

[2] = system: Corn Earworm (CEW) (Helicoverpa zea); assay: Bioassay on corn earworm (CEW), 128-well diet tray assay, percent mortality; type: in vivo; conditions: for pest or weed control at 50 µg/cm2, 50 µg/cm2: Helicoverpa zea, 50 μg/cm^2
Procedure: as §1
Bioassays on CEW (Helicoverpa zea)
Bioassays on CEW were conducted using a 128-well diet tray assay. One to five second instar CEW larvae were placed in each well (3 mL) of the diet tray that had been previously filled with 1 mL of artificial diet to which 50 μg/cm^2 of the test compound (dissolved in 50 μL of 90:10 acetone-water mixture) had been applied (to each of eight wells) and then allowed to dry. Trays were covered with a clear self-adhesive cover and held at 25° C., 14:10 light-dark for five to seven days. Percent mortality was recorded for the larvae in each well; activity in the eight wells was then averaged. The results are indicated in the table entitled “Table 5: Biological Results” (See Table Section).

Structure (SMILES)	pest or weed control at 50 µg/cm2, 50 µg/cm2 [1] [%]	pest or weed control at 50 µg/cm2, 50 µg/cm2 [2] [%]	% Mortality BAW 50 μg/cm^2 [1]	% Mortality CEW 50 μg/cm^2 [2]
CC(C)c1ccccc1N1C(=NN=Cc2ccc(-c3ncn(-c4ccc(OC(F)(F)F)cc4)n3)cc2)SCC1(O)C(F)(F)F (stereo in doubt) [Compound 246C, (Z)-3-(2-isopropylphenyl)-2-((E)-(4-(1-(4-(trifluoromethoxy)phenyl)-1H-1,2,4-triazol-3-yl)benzylidene)hydrazono)-4-(trifluoromethyl)thiazolidin-4-ol]	50 to 100	50 to 100		
Cc1cccc(C)c1/N=C(/N/N=C/c1ccc(-c2ncn(-c3ccc(OC(F)(F)F)cc3)n2)cc1)SCC#C[Si](C)(C)C [Compound 9C]			A (50-100)	A (50-100)
COCCOC(C)C(=O)OCS/C(=N\c1c(C)cccc1C)N/N=C/c1ccc(-c2ncn(-c3ccc(OC(F)(F)F)cc3)n2)cc1 (centres unmarked) [Compound 41C]	50 to 100	50 to 100		
COCCOC(C)C(=O)OCS/C(=N\c1c(C)cc(OC)cc1C)N/N=C/c1ccc(-c2ncn(-c3ccc(OC(F)(F)F)cc3)n2)cc1 (centres unmarked) [Compound 42C]	50 to 100	50 to 100		
COc1cc(C)c(/N=C(/N/N=C/c2ccc(-c3ncn(-c4ccc(OC(F)(F)C(F)(F)F)cc4)n3)cc2)SCC(=O)O)c(C)c1 [Compound 50C]	50 to 100	50 to 100		
COc1cc(C)c(N2C(=O)CS/C2=N\N=C\c2ccc(-c3ncn(-c4ccc(OC(F)(F)F)cc4)n3)cc2)c(C)c1 [Compound 69C]	50 to 100	50 to 100		
CCN(CC)c1ccc(-c2cs/c(=N\N=Cc3ccc(-c4ncn(-c5ccc(OC(F)(F)F)cc5)n4)cc3)n2-c2c(C)cccc2C)cc1 [Compound 74C, 4-((2Z)-3-(2,6-dimethylphenyl)-2-((4-(1-(4-(trifluoromethoxy)phenyl)-1H-1,2,4-triazol-3-yl)benzylidene)hydrazono)-2,3-dihydrothiazol-4-yl)-N,N-diethylaniline]	50 to 100	50 to 100		
COc1ccc(N2C(=O)CS/C2=N\N=C\c2ccc(-c3ncn(-c4ccc(OC(F)(F)F)cc4)n3)cc2)cc1 [Compound 114C]	50 to 100	50 to 100		
CC1S/C(=N\N=C\c2ccc(-c3ncn(-c4ccc(OC(F)(F)F)cc4)n3)cc2)N(c2c(F)cccc2Cl)C1=O (centres unmarked) [Compound 130C]	50 to 100	50 to 100		
Cc1cccc(C)c1N1CCS/C1=N\N=C\c1ccc(-c2ncn(-c3ccc(OC(F)(F)F)cc3)n2)cc1 [Compound 141C]	50 to 100	50 to 100		
Cc1ccccc1-n1c(C)cs/c1=N\N=C\c1ccc(-c2ncn(-c3ccc(OC(F)(F)F)cc3)n2)cc1 [Compound 173C]	50 to 100	50 to 100		
CC(C)c1ccccc1N1CCCCC/S1=N\N=C\c1ccc(-c2ncn(-c3ccc(OC(F)(F)F)cc3)n2)cc1 (centres unmarked) [Compound 212C]	50 to 100	50 to 100		
CC1(O)CS/C(=N\N=C\c2ccc(-c3ncn(-c4ccc(OC(F)(F)F)cc4)n3)cc2)N1c1c(F)cccc1F (centres unmarked) [Compound 240C]	50 to 100	50 to 100		
CC1(O)CS/C(=N\c2c(Cl)cccc2C(F)(F)F)N1/N=C/c1ccc(-c2ncn(-c3ccc(OC(F)(F)F)cc3)n2)cc1 (centres unmarked) [Compound 241C, (Z)-2-((2-chloro-6-(trifluoromethyl)phenyl)imino)-4-methyl-3-((E)-(4-(1-(4-(trifluoromethoxy)phenyl)-1H-1,2,4-triazol-3-yl)benzylidene)amino)thiazolidin-4-ol]	50 to 100	50 to 100		
CCc1cc(OC)ccc1N1/C(=N/N=C/c2ccc(-c3ncn(-c4ccc(OC(F)(F)C(F)(F)F)cc4)n3)cc2)SCC1(C)O (centres unmarked) [Compound 264C]	50 to 100			
